Among the data in US7829665B2 (priority 2005, dated 2010) are IC50 values, retold here.

This assay deals with T1, full-length NS3/NS4A-2 (HCV NS3 protease) (Hepatitis C virus genotype 1a, UniProt P27958).
T1 construct: Recombinant E. coli or Baculovirus full-length NS3 was diluted to 3.33 μM with assay buffer; made in house; host or cells: E. coli or baculovirus (BV) expression system
Briefly: NS3-NS4 protease assay / NS3 inhibition assay (RETS1 substrate, fluorescence kinetic read). The format is biochemical. The settings on record: read-out: NS3-NS4 IC50. The procedure:
NS3 complex formation with NS4A-2.
Recombinant E. coli or Baculovirus full-length NS3 was diluted to 3.33 μM with assay buffer and transferred material to an eppendorf tube and place in water bath in 4° C. refrigerator. The appropriate amount of NS4A-2 to 8.3 mM in assay buffer was added to equal the volume of NS3 in step 2.1.1 (conversion factor—3.8 mg/272 μL assay buffer). The material was transferred to an eppendorf tube and place in water bath in 4° C. refrigerator.
After equilibration to 4° C., equal volumes of NS3 and NS4A-2 solutions were combined in an eppendorf tube, mix gently with a manual pipettor, and incubate mixture for 15 minutes in the 4° C. water bath. Final concentrations in the mixture are 1.67 μM NS3, 4.15 mM NS4A-2 (2485-fold molar excess NS4A-2).
After 15 minutes at 4° C., the NS3/NS4A-2 eppendorf tube was removed and place it in a room temperature water bath for 10 minutes. NS3/NS4A-2 was alliquoted at appropriate volumes and store at −80° C. (E. coli NS3 run at 2 nM in assay, aliquot at 25 μL. BV NS3 run at 3 nM in assay, aliquot at 30 μL).
Sample compounds were dissolved to 10 mM in DMSO then diluted to 2.5 mM (1:4) in DMSO. Typically, compounds were added to an assay plate at 2.5 mM concentration, yielding upon dilution a starting concentration of 50 microM in the assay inhibition curve. Compounds were serial diluted in assay buffer to provide test solutions at lower concentrations.
The E. coli. NS3/NS4A-2 was diluted to 4 nM NS3 (1:417.5 of 1.67 μM stock−18 μL 1.67 μM stock+7497 μL assay buffer). The BV NS3/NS4A-2 was diluted to 6 nM NS3 (1:278.3 of 1.67 μM stock−24 μL 1.67 μM stock+6655 μL assay buffer). Using the manual multichannel pipettor, careful not to introduce bubbles into the plate, add 50 μL assay buffer to wells A01-H01 of a black Costar 96-well polypropylene storage plate.
Using the manual multichannel pipettor, careful not to introduce bubbles into the plate, add 50 μL of diluted NS3/NS4A-2 from step 2.2.6 to wells A02-H12 of plate in step 2.2.7. Using the manual multichannel pipettor, careful not to introduce bubbles into the plate, transfer 25 μL of the wells in drug dilution plate in step 2.2.5 to corresponding wells in assay plate in step 2.2.8. Change tips on multichannel pipettor for each row of compounds transferred. Using the manual multichannel pipettor, careful not to introduce bubbles into the plate, mix the wells from the assay plate in step 2.2.9 by aspirating and dispensing 35 μL of the 75 μL in each well five times. Change tips on multichannel pipettor for each row of wells mixed. Cover plate with a polystyrene plate lid and pre-incubate the plate from step 2.2.10 containing NS3 protease and sample compounds 10 minutes at room temperature. While plate from step 2.2.11 is pre-incubating, dilute RETS1 substrate in a 15 mL polypropylene centrifuge tube. Dilute RETS1 substrate to 8 μM (1:80.75 of 646 μM stock−65 μL 646 μM stock+5184 μL assay buffer).
After the plate in step is done pre-incubating, and using the manual multichannel, add 25 μL of substrate to all wells on the plate. Quickly mix the plate as in step 2.2.10, mixing 65 μL of the 100 μL in the wells.
Read the plate in kinetic mode on the Molecular Devices SpectraMax Gemini XS plate reader. Reader settings: Read time: 30 minutes, Interval: 36 seconds, Reads: 51, Excitation λ: 335 nm, Emission λ: 495 nm, cutoff: 475 nm, Automix: off, Calibrate: once, PMT: high, Reads/well: 6, Vmax pts: 21 or 28/51 depending on length of linearity of reaction
IC50 s are determined using a four parameter curve fit equation, and converted to Ki's using the following Km's: • Full-length E. coli NS3—2.03 μM • Full-length BV NS3—1.74 μM where Ki=IC50/(1+[S]/Km)) • Quantitation by ELISA of the selectable marker protein, Neomycin phosphotransferase II (NPTII) in the HCV Sub-Genomic Replicon, GS4.3

Where [1] appears, read: recombinant E. coli or Baculovirus full-length NS3 with NS4A-2.

Molecules are shown by their SMILES. Where two headings read alike, the source gives them in different places. Some results are limits rather than exact numbers.

T1 sequence (P27958 1027-1657): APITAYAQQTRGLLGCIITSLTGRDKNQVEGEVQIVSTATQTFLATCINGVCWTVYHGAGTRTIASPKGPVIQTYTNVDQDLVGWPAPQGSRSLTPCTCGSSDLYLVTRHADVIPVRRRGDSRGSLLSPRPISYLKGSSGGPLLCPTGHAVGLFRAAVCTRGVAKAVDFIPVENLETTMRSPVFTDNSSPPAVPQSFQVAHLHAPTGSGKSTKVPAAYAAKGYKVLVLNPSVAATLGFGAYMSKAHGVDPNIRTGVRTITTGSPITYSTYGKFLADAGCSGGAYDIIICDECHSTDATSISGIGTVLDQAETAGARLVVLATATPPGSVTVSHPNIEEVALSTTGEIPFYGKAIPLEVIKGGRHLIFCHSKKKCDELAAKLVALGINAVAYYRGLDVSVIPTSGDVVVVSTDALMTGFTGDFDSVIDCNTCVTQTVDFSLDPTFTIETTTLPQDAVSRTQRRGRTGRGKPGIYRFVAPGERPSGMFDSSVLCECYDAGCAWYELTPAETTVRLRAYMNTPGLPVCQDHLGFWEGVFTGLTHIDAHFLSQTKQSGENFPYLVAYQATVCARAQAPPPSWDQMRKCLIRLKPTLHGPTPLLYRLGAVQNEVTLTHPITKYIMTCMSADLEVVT

Turning to `CC(C)(C)OC(=O)NC1CCCCCCCC=CC2CC2(C(=O)NS(=O)(=O)C(F)(F)F)NC(=O)C2CCCN2C1=O` (stereo not shown) [Compound 2107], under setting [1], the IC50 was less than 1 µM.

Regarding `CC(C)(C)OC(=O)N[C@H]1CCCCC/C=C\[C@@H]2C[C@@]2(C(=O)NS(=O)(=O)NCCc2cccc3ccccc23)NC(=O)[C@@H]2CCCN2C1=O` [Compound 422], under setting [1], the IC50 is greater than 10 µM.

`CC(C)(C)OC(=O)N[C@H]1CCCCC/C=C\[C@@H]2C[C@@]2(CO)NC(=O)[C@@H]2C[C@@H](OC(=O)N3Cc4cccc(F)c4C3)CN2C1=O` [Compound 153, (2R,6S,13aS,14aR,16aS,Z)-6-(tert-botoxycarbonylamino)-14a-(hydroxymethyl)-5,16-dioxo-1,2,3,5,6,7,8,9,10,11,13a,14,14a,15,16,16a-hexadecahydrocyclopropa[e]pyrrolo[1,2-α][1,4]dizacyclopentadecin-2-yl-4-fluoroisoindoline-2-carboxylate]: the IC50 under setting [1] is greater than 10 µM.

On to `CCOC(=O)[C@@]12C[C@H]1/C=C\CCCCC[C@H](NC(=O)OC1CCCC1)C(=O)N1C[C@H](OC(=O)N3Cc4ccc(OCCN5CCOCC5)cc4C3)C[C@H]1C(=O)N2` [Compound 129], for which the IC50 under setting [1] is less than 10 µM.

In the case of `CCCNC(=O)[C@@]12C[C@H]1/C=C\CCCCC[C@H](NC(=O)OC(C)(C)C)C(=O)N1CCC[C@H]1C(=O)N2` [Compound 2319], where the note is “Table 22”, the concentration for half-maximal inhibition (IC50) is less than 0.1 µM.

`CC(C)(C)OC(=O)N[C@H]1CCCCC/C=C\[C@@H]2C[C@@]2(C(=O)NS(=O)(=O)Nc2cccnc2)NC(=O)[C@@H]2CCCN2C1=O` [Compound 406]: the IC50 under setting [1] is greater than 10 µM.

Regarding `CC(C)(C)OC(=O)N[C@H]1CCCCC/C=C\[C@@H]2C[C@@]2(C(=O)NS(=O)(=O)c2ccccc2F)NC(=O)[C@@H]2CCCN2C1=O` [Compound 2124], under setting [1], the IC50 was less than 10 µM.

For `CC(C)COC(=O)N[C@H]1CCCCC/C=C\[C@@H]2C[C@@]2(C(=O)NS(=O)(=O)Nc2ccc(Cl)cc2)NC(=O)[C@@H]2CCCN2C1=O` [Compound 419], the IC50 under setting [1] is less than 10 µM.

Turning to `CC(=O)N[C@H]1CCCCC/C=C\[C@@H]2C[C@@]2(C(=O)NS(=O)(=O)C2CC2)NC(=O)[C@@H]2CCCN2C1=O` [Compound 316], the IC50 under setting [1] was less than 10 µM.

With `CN(Cc1ccc(Cl)cc1)S(=O)(=O)NC(=O)[C@@]12C[C@H]1/C=C\CCCCC[C@H](NC(=O)OC(C)(C)C)C(=O)N1CCC[C@H]1C(=O)N2` [Compound 2230], under setting [1], the IC50 is less than 10 µM.

As to `CC(C)(C)OC(=O)N[C@H]1CCCCC/C=C\[C@@H]2C[C@@]2(C(=O)NS(=O)(=O)c2c(Cl)cc(Cl)cc2Cl)NC(=O)[C@@H]2CCCN2C1=O` [Compound 2115], under setting [1], the IC50 is less than 0.1 µM.

On to `CC(C)C[C@@H]1C[C@H]2C(=O)N[C@]3(C(=O)NS(=O)(=O)C4CC4)C[C@H]3/C=C\CCCCC[C@H](NC(=O)OC(C)(C)C)C(=O)N2C1` [Compound 2147, (1S,4R,6S,14S,18R)-tert-Butyl 4-cyclopropylsulfonylaminocarbonyl-2,15-dioxo-3,16-diaza-18-(2-methylpropyl)-tricyclo[14.3.0.0^4,6]nonadec-7-ene-14-yl carbamate], for which, under setting [1], the IC50 was greater than 10 µM.

Regarding `CC(C)(C)OC(=O)N[C@H]1CCCCC/C=C\[C@@H]2C[C@@]2(C(=O)NS(=O)(=O)c2cccc(C(F)(F)F)c2)NC(=O)[C@@H]2CCCN2C1=O` [Compound 2149], under setting [1], the IC50 is less than 10 µM.

Turning to `COc1ccc(CCNS(=O)(=O)NC(=O)[C@@]23C[C@H]2/C=C\CCCCC[C@H](NC(=O)OC(C)(C)C)C(=O)N2CCC[C@H]2C(=O)N3)cc1` [Compound 413], the IC50 under setting [1] was greater than 10 µM.

Consider `CCN(C)S(=O)(=O)NC(=O)[C@@]12C[C@H]1/C=C\CCCCC[C@H](NC(=O)OC(C)(C)C)C(=O)N1CCC[C@H]1C(=O)N2` [Compound 400], for which, under setting [1], the IC50 was less than 10 µM.

For `CCCS(=O)(=O)NC(=O)C12CC1C=CCCCCCCCC(NC(=O)OC(C)(C)C)C(=O)N1CCCC1C(=O)N2` (stereo not shown) [Compound 2105], under setting [1], the IC50 is less than 1 µM.

`CC(C)(C)OC(=O)N[C@H]1CCCCC/C=C\[C@@H]2C[C@@]2(C(=O)NS(=O)(=O)Cc2ccccc2Cl)NC(=O)[C@@H]2CCCN2C1=O` [Compound 2117]: the IC50 under setting [1] was less than 1 µM.

Turning to `CC(C)(C)OC(=O)N[C@H]1CCCCC/C=C\[C@@H]2C[C@@]2(C(=O)NS(=O)(=O)NCCc2ccccn2)NC(=O)[C@@H]2CCCN2C1=O` [Compound 423], under setting [1], the IC50 was less than 10 µM.

On to `CC(C)(C)OC(=O)N[C@H]1CCCCC/C=C\[C@@H]2C[C@@]2(C(=O)NS(=O)(=O)NCCc2ccc(Cl)cc2)NC(=O)[C@@H]2CCCN2C1=O` [Compound 403], for which the IC50 under setting [1] is less than 10 µM.

For `CC(C)(C)OC(=O)N[C@H]1CCCCC/C=C\[C@@H]2C[C@@]2(C(=O)NCc2ccncc2)NC(=O)[C@@H]2CCCN2C1=O` [Compound 502], the IC50 under setting [1] is greater than 10 µM.

On to `COC[C@@H]1CCCN1S(=O)(=O)NC(=O)[C@@]12C[C@H]1/C=C\CCCCC[C@H](NC(=O)OC(C)(C)C)C(=O)N1CCC[C@H]1C(=O)N2` [Compound 2252], for which the IC50 under setting [1] was less than 1 µM.

As for `CC(C)(C)OC(=O)N[C@H]1CCCCC/C=C\[C@@H]2C[C@@]2(C(=O)NS(=O)(=O)C2CC2)NC(=O)C2Cc3ccccc3CN2C1=O` (stereo partly drawn) [Compound 2009, tert-Butyl (1aS,9S,19aR,Z)-19a-(cyclopropylsulfonylcarbamoyl)-10,18-dioxo-1a,4,5,6,7,8,9,10,12,17,17a,18,19,19a-tetradecahydro-1H-11,14-diaza-bicyclo[13.1.0]hexadeca-1(15),2-dieno[11,12-b]isoquinolin-9-ylcarbamate], under setting [1], the IC50 was less than 10 µM.

`C[C@@H](NC(=O)O[C@@H]1C[C@H]2C(=O)N[C@]3(C(=O)O)C[C@H]3/C=C\CCCCC[C@H](NC(=O)OC(C)(C)C)C(=O)N2C1)c1ccc(F)cn1` [Compound 148]: under setting [1], the IC50 was greater than 10 µM.

Take `COc1ccccc1CCNS(=O)(=O)NC(=O)[C@@]12C[C@H]1/C=C\CCCCC[C@H](NC(=O)OC(C)(C)C)C(=O)N1CCC[C@H]1C(=O)N2` [Compound 415]: under setting [1], the IC50 was greater than 10 µM.

As for `COc1cccc(NS(=O)(=O)NC(=O)[C@@]23C[C@H]2/C=C\CCCCC[C@H](NC(=O)OC(C)(C)C)C(=O)N2CCC[C@H]2C(=O)N3)c1` [Compound 2240], the IC50 under setting [1] is less than 1 µM.

Consider `CS(=O)(=O)NC(=O)[C@@]12C[C@H]1/C=C\CCCCC[C@H](NC(=O)OC1CCCC1)C(=O)N1C[C@H](OC(=O)N3CCc4ccccc4C3)C[C@H]1C(=O)N2` [Compound 119], for which the IC50 under setting [1] is less than 0.1 µM.

`CC(C)(C)OC(=O)NC1CCCCCCCC=CC2CC2(C(=O)NS(=O)(=O)c2ccc([N+](=O)[O-])cc2)NC(=O)C2CCCN2C1=O` (stereo not shown) [Compound 2102]: the IC50 under setting [1] was less than 10 µM.

In the case of `CC(C)(C)OC(=O)N[C@H]1CCCCC/C=C\[C@@H]2C[C@@]2(C(=O)NS(=O)(=O)NCCc2ccccc2Cl)NC(=O)[C@@H]2CCCN2C1=O` [Compound 402], under setting [1], the IC50 is greater than 10 µM.

On to `O=C(N[C@H]1CCCCC/C=C\[C@@H]2C[C@@]2(C(=O)NS(=O)(=O)Nc2ccc(Cl)cc2)NC(=O)[C@@H]2CCCN2C1=O)OC1CCCC1` [Compound 420], for which the IC50 under setting [1] was greater than 10 µM.

`O=C(N[C@H]1CCCCC/C=C\[C@@H]2C[C@@]2(C(=O)NS(=O)(=O)Nc2ccc(Cl)cc2)NC(=O)[C@@H]2CCCN2C1=O)C1CCC1` [Compound 427]: the IC50 under setting [1] was greater than 10 µM.

In the case of `CC(C)(C)OC(=O)NC1CCCCCCCC=CC2CC2(C(=O)NS(=O)(=O)c2ccccc2)NC(=O)C2CCCN2C1=O` (stereo not shown) [Compound 2101], the IC50 under setting [1] was less than 10 µM.
